Measurements taken from patent publication US20050197350A1, “Novel quinoline, tetrahydroquinazoline, and pyrimidine derivatives and methods of treatment related to the use thereof” (TAISHO PHARMACEUTICAL CO., LTD., priority 2003, published 2005).
pIC50: −log10 of the molar value.

target: MCH receptor (Homo sapiens, UniProt Q99705); test: High throughput functional screening FLIPR/FDSS6000 (intracellular Ca2+ evoked by MCH); assay type: cell-based; details: FLIPR/FDSS, antagonist activity vs 50 nM MCH; class by percent of control at 10^−7 M or IC50; read-out: class
In short: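 For antagonist testing, compound-treated cells (30 min, 37 °C) were stimulated with 50 nM MCH and intracellular Ca2+ followed by Fluo4 fluorescence on FLIPR/FDSS6000. Receptor was a constitutively active, non-endogenous MCH receptor; dye loading 4 μM Fluo4-AM, 1 h, 37 °C.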

Compound	pIC50
Cc1cnc(N[C@H]2CC[C@@H](NC(=O)c3cccnc3S(=O)(=O)c3ccc(C(F)(F)F)cc3)CC2)nc1N(C)C [Example 3291, N-(cis-4-{[4-(dimethylamino)-5-methylpyrimidin-2-yl]amino}cyclohexyl)-2-{[4-(trifluoromethyl)phenyl]sulfonyl}-nicotinamide]	6.70 to 7.30
Cc1cnc(N[C@H]2CC[C@@H](C(=O)N[C@@H](C)c3ccc(Cl)cc3)CC2)nc1N(C)C [Example 3292, cis-N-[(1S)-1-(4-chlorophenyl)ethyl]-4-{[4-(dimethylamino)-5-methylpyrimidin-2-yl]amino}cyclohexanecarboxamide]	6.70 to 7.30
Cc1cnc(N[C@H]2CC[C@@H](C(=O)N[C@@H](C)c3cc(C(F)(F)F)cc(C(F)(F)F)c3)CC2)nc1N(C)C [Example 3293, cis-N-{(1S)-1-[3,5-bis(trifluoromethyl)phenyl]ethyl}-4-{[4-(dimethylamino)-5-methylpyrimidin-2-yl]amino}cyclohexanecarboxamide]	< 6.70
Cc1cnc(N[C@H]2CC[C@@H](C(=O)N[C@H](C)c3ccccc3F)CC2)nc1N(C)C [Example 3294, cis-4-{[4-(dimethylamino)-5-methylpyrimidin-2-yl]aminol}-N-[(1R)-1-(2-fluorophenyl)ethyl]cyclohexanecarboxamide]	< 6.70
Cc1cnc(N[C@H]2CC[C@@H](C(=O)N[C@@H](C)c3ccccc3F)CC2)nc1N(C)C [Example 3295, cis-4-{[4-(dimethylamino)-5-methylpyrimidin-2-yl]amino}-N-[(1S)-1-(2-fluorophenyl)ethyl]cyclohexanecarboxamide]	< 6.70
Cc1cnc(N[C@H]2CC[C@@H](C(=O)N[C@H](C)c3ccc(Br)cc3)CC2)nc1N(C)C [Example 3297, cis-N-[(1R)-1-(4-bromophenyl)ethyl]-4-{[4-(dimethylamino)-5-methylpyrimidin-2-yl]amino}cyclohexanecarboxamide]	6.70 to 7.30
Cc1cnc(NC2CCC(C(=O)N[C@@H](C)c3cccc(C(F)(F)F)c3)CC2)nc1N(C)C (stereo partly drawn) [Example 3298, 4-{[4-(dimethylamino)-5-methylpyrimidin-2-yl]amino}-N-{(1S)-1-[3-(trifluoromethyl)phenyl]ethyl}cyclohexanecarboxamide]	> 7.30
Cc1cnc(NC2CCC(C(=O)N[C@H](C)c3cccc(C(F)(F)F)c3)CC2)nc1N(C)C (stereo partly drawn) [Example 3299, 4-{[4-(dimethylamino)-5-methylpyrimidin-2-yl]amino}-N-{(1R)-1-[3-(trifluoromethyl)phenyl]ethyl}cyclohexanecarboxamide]	> 7.30
Cc1cnc(NC2CCC(C(=O)N[C@@H](C)c3ccccc3C(F)(F)F)CC2)nc1N(C)C (stereo partly drawn) [Example 3300, 4-{[4-(dimethylamino)-5-methylpyrimidin-2-yl]amino}-N-{(1S)-1-[2-(trifluoromethyl)phenyl]ethyl}cyclohexanecarboxamide]	> 7.30
Cc1cnc(NC2CCC(C(=O)N[C@H](C)c3ccccc3C(F)(F)F)CC2)nc1N(C)C (stereo partly drawn) [Example 3301, 4-{[4-(dimethylamino)-5-methylpyrimidin-2-yl]amino}-N-{(1R)-1-[2-(trifluoromethyl)phenyl]ethyl}cyclohexanecarboxamide]	< 6.70
Cc1cnc(N[C@H]2CC[C@@H](C(=O)N[C@@H](C)c3ccc(OC(F)(F)F)cc3)CC2)nc1N(C)C [Example 3302, cis-4-{[4-(dimethylamino)-5-methylpyrimidin-2-yl]amino}-N-{(1S)-1-[4-(trifluoromethoxy)phenyl]ethyl}-cyclohexanecarboxamide]	> 7.30
Cc1cnc(N[C@H]2CC[C@@H](C(=O)N[C@H](C)c3ccc(OC(F)(F)F)cc3)CC2)nc1N(C)C [Example 3303, cis-4-{[4-(dimethylamino)-5-methylpyrimidin-2-yl]amino}-N-{(1R)-1-[4-(trifluoromethoxy)phenyl]ethyl}-cyclohexanecarboxamide]	6.70 to 7.30
Cc1cc(N[C@H]2CC[C@@H](C(=O)N[C@@H](C)c3ccc(Br)cc3)CC2)nc2ccccc12 [Example 3304, cis-N-[(1S)-1-(4-bromophenyl)ethyl]-4-[(4-methylquinolin-2-yl)amino]cyclohexanecarboxamide]	< 6.70
Cc1cc(N[C@H]2CC[C@@H](C(=O)N[C@H](C)c3ccc(Cl)cc3)CC2)nc2ccccc12 [Example 3305, cis-N-[(1R)-1-(4-chlorophenyl)ethyl]-4-[(4-methylquinolin-2-yl)amino]cyclohexanecarboxamide]	6.70 to 7.30
Cc1cc(N[C@H]2CC[C@@H](C(=O)N[C@@H](C)c3ccc(Cl)cc3)CC2)nc2ccccc12 [Example 3306, cis-N-[(1S)-1-(4-chlorophenyl)ethyl]-4-[(4-methylquinolin-2-yl)amino]cyclohexanecarboxamide]	6.70 to 7.30
Cc1cc(N[C@H]2CC[C@@H](C(=O)N[C@H](C)c3cccc(C(F)(F)F)c3)CC2)nc2ccccc12 [Example 3307, cis-4-[(4-methylquinolin-2-yl)amino]-N-{(1R)-1-[3-(trifluoromethyl)phenyl]ethyl}cyclohexanecarboxamide]	> 7.30
Cc1cnc(N[C@H]2CC[C@@H](C(=O)N[C@@H](C)c3ccc(Br)cc3)CC2)nc1N(C)C [Example 3308, cis-N-[(1S)-1-(4-bromophenyl)ethyl]-4-{[4-(dimethylamino)-5-methylpyrimidin-2-yl]amino}cyclohexanecarboxamide]	> 7.30

Compound	pIC50
Cc1cc(N[C@H]2CC[C@@H](C(=O)N[C@@H](C)c3cc(C(F)(F)F)cc(C(F)(F)F)c3)CC2)nc2ccccc12 [Example 3309, cis-N-{(1S)-1-[3,5-bis(trifluoromethyl)phenyl]ethyl}-4-[(4-methylquinolin-2-yl)amino]cyclohexanecarboxamide]	6.70 to 7.30
Cc1cc(N[C@H]2CC[C@@H](C(=O)N[C@H](C)c3ccc(OC(F)(F)F)cc3)CC2)nc2ccccc12 [Example 3310, cis-4-[(4-methylquinolin-2-yl)amino]-N-{(1R)-1-[4-(trifluoromethoxy)phenyl]ethyl}cyclohexanecarboxamide]	< 6.70
Cc1cc(N[C@H]2CC[C@@H](C(=O)N[C@H](C)c3ccccc3F)CC2)nc2ccccc12 [Example 3311, cis-N-[(1R)-1-(2-fluorophenyl)ethyl]-4-[(4-methylquinolin-2-yl)amino]cyclohexanecarboxamide]	< 6.70
Cc1cc(N[C@H]2CC[C@@H](C(=O)N[C@@H](C)c3ccccc3F)CC2)nc2ccccc12 [Example 3312, cis-N-[(1S)-1-(2-fluorophenyl)ethyl]-4-[(4-methylquinolin-2-yl)amino]cyclohexanecarboxamide]	> 7.30
Cc1cc(N[C@H]2CC[C@@H](C(=O)N[C@H](C)c3ccccc3C(F)(F)F)CC2)nc2ccccc12 [Example 3313, cis-4-[(4-methylquinolin-2-yl)amino]-N-{(1R)-1-[2-(trifluoromethyl)phenyl]ethyl}cyclohexanecarboxamide]	6.70 to 7.30
Cc1cc(N[C@H]2CC[C@@H](C(=O)N[C@@H](C)c3ccccc3C(F)(F)F)CC2)nc2ccccc12 [Example 3314, cis-4-[(4-methylquinolin-2-yl)amino]-N-{(1S)-1-[2-(trifluoromethyl)phenyl]ethyl}cyclohexanecarboxamide]	> 7.30
Cc1cc(N[C@H]2CC[C@@H](C(=O)N[C@@H](C)c3cccc(C(F)(F)F)c3)CC2)nc2ccccc12 [Example 3315, cis-4-[(4-methylquinolin-2-yl)amino]-N-{(1S)-1-[3-(trifluoromethyl)phenyl]ethyl}cyclohexanecarboxamide]	> 7.30
COc1ccccc1NC(=O)N[C@H]1CC[C@@H](Nc2ncc(C)c(N(C)C)n2)CC1 [Example 3321, N-(cis-4-{[4-(dimethylamino)-5-methylpyrimidin-2-yl]amino}cyclohexyl)-N′-(2-methoxyphenyl)urea]	6.70 to 7.30
COc1cccc(NC(=O)N[C@H]2CC[C@@H](Nc3ncc(C)c(N(C)C)n3)CC2)c1 [Example 3322, N-(cis-4-{[4-(dimethylamino)-5-methylpyrimidin-2-yl]amino}cyclohexyl)-N′-(3-methoxyphenyl)urea]	< 6.70
COc1ccc(NC(=O)N[C@H]2CC[C@@H](Nc3ncc(C)c(N(C)C)n3)CC2)cc1OC [Example 3323, N-(3,4-dimethoxyphenyl)-N′-(cis-4-{[4-(dimethylamino)-5-methylpyrimidin-2-yl]amino}cyclohexyl)urea]	> 7.30
Cc1cnc(N[C@H]2CC[C@@H](NC(=O)Nc3ccccc3F)CC2)nc1N(C)C [Example 3324, N-(cis-4-{[4-(dimethylamino)-5-methylpyrimidin-2-yl]amino}cyclohexyl)-N′-(2-fluorophenyl)urea]	6.70 to 7.30
Cc1cnc(N[C@H]2CC[C@@H](NC(=O)Nc3cccc(F)c3)CC2)nc1N(C)C [Example 3325, N-(cis-4-{[4-(dimethylamino)-5-methylpyrimidin-2-yl]amino}cyclohexyl)-N′-(3-fluorophenyl)urea]	6.70 to 7.30
Cc1cnc(N[C@H]2CC[C@@H](NC(=O)Nc3ccc(F)cc3)CC2)nc1N(C)C [Example 3326, N-(cis-4-{[4-(dimethylamino)-5-methylpyrimidin-2-yl]amino}cyclohexyl)-N′-(4-fluorophenyl)urea]	> 7.30
Cc1cnc(N[C@H]2CC[C@@H](NC(=O)Nc3ccc(F)c(F)c3)CC2)nc1N(C)C [Example 3327, N-(3,4-difluorophenyl)-N′-(cis-4-{[4-(dimethylamino)-5-methylpyrimidin-2-yl]amino}cyclohexyl)urea]	6.70 to 7.30
Cc1cnc(N[C@H]2CC[C@@H](NC(=O)Nc3ccccc3OC(F)(F)F)CC2)nc1N(C)C [Example 3330, N-(cis-4-{[4-(dimethylamino)-5-methylpyrimidin-2-yl]amino}cyclohexyl)-N′-[2-(trifluoromethoxy)phenyl]urea]	> 7.30
Cc1cnc(N[C@H]2CC[C@@H](NC(=O)Nc3ccc(F)c(Cl)c3)CC2)nc1N(C)C [Example 3331, N-(3-chloro-4-fluorophenyl)-N′-(cis-4-{[4-(dimethylamino)-5-methylpyrimidin-2-yl]amino}cyclohexyl)urea]	6.70 to 7.30
